Results: US4656190A, “Indene derivatives and their use as PAF-antagonists” (Merck & Co., Inc., priority 1983, dated 1987)
Several values for one entry are separate records, joined by “and”; a condition that tells them apart may be missing. Identical values can stand only once. Like-named read-outs stand apart in the source and are kept apart here.

Key:
[1] = target: T1, PAF specific receptor binding site on rabbit platelet plasma membranes (Oryctolagus cuniculus, UniProt G1TEI7); experiment: Inhibition of 3H-PAF binding to rabbit platelet plasma membranes
T1 construct: from tissue; host or cells: rabbit platelets (plasma membrane suspension)
T1 sequence (G1TEI7 1-342): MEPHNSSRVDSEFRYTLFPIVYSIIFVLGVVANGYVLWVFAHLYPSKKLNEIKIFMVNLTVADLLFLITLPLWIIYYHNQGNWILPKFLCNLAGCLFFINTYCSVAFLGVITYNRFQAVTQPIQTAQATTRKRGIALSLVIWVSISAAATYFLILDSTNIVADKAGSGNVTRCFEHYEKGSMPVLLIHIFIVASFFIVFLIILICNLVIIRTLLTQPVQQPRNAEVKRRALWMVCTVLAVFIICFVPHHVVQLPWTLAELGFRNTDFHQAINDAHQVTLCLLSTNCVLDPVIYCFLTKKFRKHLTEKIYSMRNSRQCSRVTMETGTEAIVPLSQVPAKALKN
Protocol: In vitro, they inhibit PAF-induced functions in both the cellular and tissue levels by disturbing the PAF binding to its specific receptor site. The ability of a compound of formula (I) to inhibit the PAF binding to its specific receptor binding site on rabbit platelet plasma membranes was measured by an assay recently developed by us.
The inhibition of H^3 -PAF binding to the rabbit platelet plasma membrane by a PAF-antagonist of Formula (I) was determined by a method employing isotropic labeling and filtration techniques. Generally, a series of Tris-buffered solutions of the selected antagonist at predetermined concentrations were prepared. Each of these solutions contains 1 pmole of ^3 H-PAF, a known amount of the test antagonist, and a sufficient amount of the pH 7.5 Tris-buffer solution (10 mM Tris, 0.25% bovine serum albumin, and 150 mM NaCl per ml water) to make the final volume of 1 ml. After adding into a set of test tubes each with 100 μg of the platelet plasma membrane suspension (S. B. Hwang, et al., Biochemistry, 22, 4756 (1983)) and one of the Tris-buffer solutions described above, the resulting mixture in each test tube was incubated at 0° C. for about one hour or until the reaction was complete. Two control samples, one of which (C1) contains all the ingredients described above except the antagonist and the other (C2) contains C1 plus a 1000-fold excess of unlabeled PAF, were also prepared and incubated simultaneously with the test samples. After the incubation was completed, the contents of each test tube were filtered under vacuo through a Whatman GF/C fiberglass filter and the residue washed rapidly several times with a total of 20 ml cold (0°-5° C.) Tris-buffer solution. Each washed residue was then suspended in 10 ml scintillation solution (Aquasol 2, New England Nuclear, Connecticut) and the radioactivity was counted in a Packard Tri-Carb 460CD Liquid Scintillation System. Defining the counts from a test sample as "Total binding with antagonist"; the counts from the control sample C1, as "Total binding C1 "; and the counts from the control sample C2 as "non-specific binding C2 ", the percent inhibition of each test antagonist can be determined by the following equation: [formula]

[2] = system: PAF-induced cutaneous vascular permeability; experiment: In vivo assay: inhibition of PAF-induced increase of cutaneous vasopermeability in guinea pigs after oral dosing; conditions: guinea pig
Protocol: The specific PAF-antagonistic activities are further established by in vivo assays following the protocol (modified procedure of Humphrey et al., Lab. Investigation, 46, 422 (1982)) described below:
Protocol for the Evaluation of the Oral Activity of
PAF Antagonists or the Inhibition of PAF-Induced
Increase of Vasopermeability by PAF-Antagonists
I. Animal species: 5 guinea pigs (400-500 g)
(4.) Ground and suspend a PAF antagonist of formula
(I) with intensive sonication in 3 ml of 0.5%
aqueous methylcellulose solution.
(5.) Administer orally to each of the animals T1,
T2, T3 and T4 an appropriate amount (in
terms of mg/kg of bodyweight) of the antagonist
solution from 4), except the control animal
(6.) Forty minutes after the oral administration,
(7.) After 20 minutes or when the anesthetics became
effective, inject intracardially to each animal
and inject intracutaneously, in duplicate 0.1
ml of a PAF solution in Tris-buffer or 0.1 ml
of the Tris-buffer itself (control) according
(9.) Wait for 30 minutes or until the blue color
(13.) In the meantime, extract a 100 μl sample of
(15.) Measure the absorbance of each supernatant from
Palo Alto, CA). Calculate the amount of Evans
blue in each skin sample in terms of the volume
(μl) of the exuded blood plasma according to
the following equation: […]
(16.) Draw a plasma exudation curve
(17.) Calculate the percent inhibition of PAF-induced
cutaneous vascular permeability from measuring
the area under the plasma exudation curve of
the control animal (AC) and that of an
animal treated orally with an antagonist
(AD), for example T1, according to the […]

[3] = Table 1, E (trans), read-out: % Inhibition of PAF Binding
[4] = Table 1, E (trans), dose 5 μM, read-out: % Inhibition of PAF Binding
[5] = Table II, Z (cis), dose 5 μM, read-out: % Inhibition of PAF Receptor
[6] = Table II, Z (cis), read-out: % Inhibition of PAF Receptor

SMILES: COCCC1=C(C)/C(=C\c2ccc(S(N)(=O)=O)cc2)c2ccc(F)cc21 [E CH2CH2OCH3 / SO2NH2 / F, E 1-(4-aminosulfonylphenyl)methylene-5-fluoro-2-methyl-1H-3-indenyl-(2-methoxy)ethane]
- inhibition at 5 µM ([1]; read-out: % Inhibition of PAF Binding): 61%

SMILES: COc1ccc2c(c1)C(CCO)=C(C)/C2=C\c1ccc(S(N)(=O)=O)cc1 [E CH2CH2OH / SO2NH2 / OCH3, E 1-(4-aminosulfonyl)methylene-5-methoxy-2-methyl-1H-3-indenyl-(2-hydroxy)ethane]
- inhibition at 1 µM [1, 3]: 59%

SMILES: COc1ccc2c(c1)C(CCSc1ccccc1)=C(C)/C2=C\c1ccc(S(N)(=O)=O)cc1 [E CH2CH2SC6H5 / SO2NH2 / OCH3, E 1-(4-aminosulfonylphenyl)methylene-5-methoxy-2-methyl-1H-3-indenyl-(2-phenylthio)ethane]
- inhibition at 5 µM [1, 4]: 56%

SMILES: COc1ccc2c(c1)C(CC[S+](C)[O-])=C(C)/C2=C\c1ccc(S(N)(=O)=O)cc1 (stereo not drawn) [E CH2CH2SOCH3 / SO2NH2 / OCH3, E 1-(4-aminosulfonylphenyl)methylene-5-methoxy-2-methyl-1H-3-indenyl-(2-methylsulfinyl)ethane]
- inhibition at 0.5 µM [1, 3]: 24%
- inhibition at 5 µM [1, 4]: 74%

SMILES: COC(=O)CC1=C(C)/C(=C\c2ccc(OC)c(OC)c2)c2ccc(OC)cc21 [E CH2COOCH3 / 3,4-dimethoxy / OCH3, E methyl 1-(3,4-dimethoxyphenyl)methylene-5-methoxy-2-methyl-1H-3-indenylacetate]
- inhibition at 1 µM [1, 3]: 45%
- inhibition at 10 µM [1, 3]: 87%

SMILES: COC(=O)CC1=C(C)/C(=C\c2ccc(S(N)(=O)=O)cc2)c2ccc(F)cc21 [E CH2COOCH3 / SO2NH2 / F, E-Methyl 1-(4-aminosulfonylphenyl)methylene-5-fluoro-2-methyl-1H-3-indenylacetate]
- inhibition at 1 µM [1, 3]: 60%

SMILES: CNS(=O)(=O)c1ccc(/C=C2\C(C)=C(CC(=O)OC)c3cc(F)ccc32)cc1 [E CH2COOCH3 / SO2NHCH3 / F, E Methyl 1-[4-(N-methylaminosulfonyl)phenyl]-methylene-5-fluoro-2-methyl-1H-3-indenylacetate]
- inhibition at 1 µM [1, 3]: 56%

SMILES: CNS(=O)(=O)c1ccc(/C=C2\C(C)=C(CC(=O)OC)c3cc(OC)ccc32)cc1 [E CH2COOCH3 / SO2NHCH3 / OCH3, E Methyl 1-(4-(N-methylaminosulfonyl)phenyl)methylene-5-methoxy-2-methyl-1H-3-indenylacetate]
- inhibition at 0.5 µM [1, 3]: 67%
- inhibition at 5 µM [1, 4]: 100%

SMILES: COC(=O)CC1=C(C)/C(=C\c2ccc([S+](C)[O-])cc2)c2ccc(F)cc21 (stereo not drawn) [E CH2COOCH3 / SOCH3 / F]
- inhibition at 5 µM [1, 4]: 45%

SMILES: COc1ccc2c(c1)C(CC(=O)O)=C(C)/C2=C\c1ccc(S(N)(=O)=O)cc1 [E CH2COOH / SO2NH2 / OCH3, 1-(4-aminosulfonylphenyl)methylene-5-methoxy-2-methyl-1H-3-indenyl acetic acid]
- inhibition at 5 µM [1, 4]: 4%

SMILES: COc1ccc2c(c1)C(CCn1ccnc1)=C(C)/C2=C\c1ccc(S(N)(=O)=O)cc1 [E drawing 16 / SO2NH2 / OCH3]
- inhibition at 0.1 µM ([1]; Table 1, E (trans), dose 0.1 μM, read-out: % Inhibition of PAF Binding): 17%
- inhibition at 0.5 µM [1, 3]: 31%
- inhibition at 1 µM [1, 3]: 45%
- inhibition at 5 µM [1, 4]: 90%

SMILES: COc1ccc2c(c1)C(CCn1ccnc1)=C(C)/C2=C\c1ccc(S(N)(=O)=O)cc1 [E drawing 22 / SO2NH2 / OCH3]
- % In Vivo Inhibition of PAF Receptor ([2]; 45 mg/kg): 52%
- % In Vivo Inhibition of PAF Receptor ([2]; 50 mg/kg): 59%

SMILES: CSc1ccc(/C=C2/C(C)=C(CCNC(C)=O)c3cc(F)ccc32)cc1 [Z CH2CH2NHCOCH3 / SCH3 / F]
- inhibition at 5 µM [1, 5]: 50%

SMILES: CC(=O)NCCC1=C(C)/C(=C/c2ccc(S(C)(=O)=O)cc2)c2ccc(F)cc21 [Z CH2CH2NHCOCH3 / SO2CH3 / F, Z 1-(4-methylsulfonylphenyl)methylene-5-fluoro-2-methyl-1H-3-indenyl-(2-acetamido)ethane]
- % Inhibition of PAF Receptor ([1]; Table II, Z (cis), dose 5 μM): 68% and 90%

SMILES: CC(=O)NCCC1=C(C)/C(=C/c2ccc([S+](C)[O-])cc2)c2ccc(F)cc21 (stereo not drawn) [Z CH2CH2NHCOCH3 / SOCH3 / F, Z 1-(4-methylsulfinylphenyl)methylene-5-fluoro-2-methyl-1H-3-indenyl-(2-acetamido)ethane]
- inhibition at 5 µM [1, 5]: 39%

SMILES: COCCC1=C(C)/C(=C/c2ccc(S(N)(=O)=O)cc2)c2ccc(F)cc21 [Z CH2CH2OCH3 / SO2NH2 / F, Z 1-(4-aminosulfonylphenyl)methylene-5-fluoro-2-methyl-1H-3-indenyl-(2-methoxy)ethane]
- inhibition at 5 µM ([1]; read-out: % Inhibition of PAF Receptor): 29%

SMILES: COc1ccc2c(c1)C(CCSc1ccccc1)=C(C)/C2=C/c1ccc(S(N)(=O)=O)cc1 [Z CH2CH2SC6H5 / SO2NH2 / OCH3, Z 1-(4-aminosulfonylphenyl)methylene-5-methoxy-2-methyl-1H-3-indenyl-(2-phenylthio)ethane]
- inhibition at 5 µM [1, 5]: 33%

SMILES: COc1ccc2c(c1)C(CC[S+](C)[O-])=C(C)/C2=C/c1ccc(S(N)(=O)=O)cc1 (stereo not drawn) [Z CH2CH2SOCH3 / SO2NH2 / OCH3, Z 1-(4-aminosulfonylphenyl)methylene-5-methoxy-2-methyl-1H-3-indenyl-(2-methylsulfinyl)ethane]
- inhibition at 5 µM [1, 5]: 56%

SMILES: COC(=O)CC1=C(C)/C(=C/c2ccc(NS(C)(=O)=O)cc2)c2ccc(OC)cc21 [Z CH2COOCH3 / NHSO2CH3 / OCH3, Z methyl 1-(4-(N-mesylaminophenyl))methylene-5-methoxy-2-methyl-1H-3-indenylacetate]
- inhibition at 3 µM ([1]; Table II, Z (cis)): 35%
- inhibition at 10 µM [1, 6]: 72%

SMILES: COC(=O)CC1=C(C)/C(=C/c2ccc(S(N)(=O)=O)cc2)c2ccc(OC)cc21 [Z CH2COOCH3 / SO2NH2 / OCH3, Z methyl 1-(4-aminosulfonylphenyl)methylene-5-methoxy-2-methyl-1H-3-indenylacetate]
- inhibition at 1 µM [1, 6]: 39%
- inhibition at 3 µM ([1]; Table II, Z (cis)): 58%
- inhibition at 5 µM [1, 5]: 66%
- inhibition at 10 µM [1, 6]: 75%
- inhibition at 20 µM ([1]; Table II, Z (cis)): 100%
- inhibition at 50 µM ([1]; Table II, Z (cis)): 100%

SMILES: COC(=O)CC1=C(C)/C(=C/c2ccc(S(=O)(=O)NC(=N)N)cc2)c2ccc(OC)cc21 [Z CH2COOCH3 / SONHC(NH)NH2 / OCH3]
- inhibition at 1 µM [1, 6]: 50%

SMILES: COc1ccc2c(c1)C(CC(=O)O)=C(C)/C2=C/c1ccc(S(N)(=O)=O)cc1 [Z CH2COOH / SO2NH2 / OCH3, 1-(4-aminosulfonylphenyl)methylene-5-methoxy-2-methyl-1H-3-indenylacetic acid]
- inhibition at 5 µM [1, 5]: 32%
- inhibition at 20 µM ([1]; Table II, Z (cis)): 57%
- inhibition at 50 µM ([1]; Table II, Z (cis)): 94%

SMILES: CCOc1ccc2c(c1)C(CC(=O)O)=C(C)/C2=C/c1ccc([S+](C)[O-])cc1 (stereo not drawn) [Z CH2COOH / SOCH3 / OC2H5]
- inhibition at 5 µM [1, 5]: 42%

SMILES: COc1ccc2c(c1)C(CCn1ccnc1)=C(C)/C2=C/c1ccc(S(N)(=O)=O)cc1 [Z drawing 18 / SO2NH2 / OCH3, Z 1-(4-aminosulfonylphenyl)methylene-5-methoxy-2-methyl-1H-3-indenyl-[2-(N-imidazolyl)]ethane]
- inhibition at 5 µM [1, 5]: 68%
